Measurements published in PubChem BioAssay (NCI).
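Dose response: 5 concentrations. Exposure: 48 h. Format: 96-well plates. Endpoint: linear interpolation; highest concentration if not reached. TGI is the concentration that stops growth completely.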 *1 amine or outer side, *2 acyl side, *3 side chain or, on linkers, in order; H or OH if unused. Where a SMILES comes first, the peptide text is derived from it. [ ]: non-standard residue; d: D form. The star is where a group is joined. ξ: configuration not given here. NMeY = CN[C@@H](Cc1ccc(O)cc1)C(=O)O; Ethylenediamine = C(CN[*:2])N[*:1]; ξNMeL = CNC(CC(C)C)C(=O)O; Cbz = O=C(OCc1ccccc1)*; Lac = C[C@H](O)C(=O)O; ξA = CC(N)C(=O)O

What was measured:
Experiment in all cases: growth of human tumour cells (NCI), 48 h
MDA-MB-231 breast = tested on: MDA-MB-231 breast
OVCAR-3 ovarian = tested on: OVCAR-3 ovarian
SW-620 colon = tested on: SW-620 colon
MOLT-4 leukemia = tested on: MOLT-4 leukemia
HOP-62 NSCLC = tested on: HOP-62 NSCLC
SNB-75 CNS = tested on: SNB-75 CNS
SN12C renal = tested on: SN12C renal
SF-539 CNS = tested on: SF-539 CNS
SK-OV-3 ovarian = tested on: SK-OV-3 ovarian
HS 578T breast = tested on: HS 578T breast
SK-MEL-2 melanoma = tested on: SK-MEL-2 melanoma
DU-145 prostate = tested on: DU-145 prostate
SF-268 CNS = tested on: SF-268 CNS
BT-549 breast = tested on: BT-549 breast
SNB-19 CNS = tested on: SNB-19 CNS
HCT-116 colon = tested on: HCT-116 colon
RPMI-8226 leukemia = tested on: RPMI-8226 leukemia
HOP-92 NSCLC = tested on: HOP-92 NSCLC
NCI-H460 lung = tested on: NCI-H460 lung

| Compound | TGI (MDA-MB-231 breast) [µM] | TGI (OVCAR-3 ovarian) [µM] | TGI (SW-620 colon) [µM] | TGI (MOLT-4 leukemia) [µM] | TGI (HOP-62 NSCLC) [µM] | TGI (SNB-75 CNS) [µM] | TGI (SN12C renal) [µM] | TGI (SF-539 CNS) [µM] | TGI (SK-OV-3 ovarian) [µM] | TGI (HS 578T breast) [µM] | TGI (SK-MEL-2 melanoma) [µM] | TGI (DU-145 prostate) [µM] | TGI (SF-268 CNS) [µM] | TGI (BT-549 breast) [µM] | TGI (SNB-19 CNS) [µM] | TGI (HCT-116 colon) [µM] | TGI (RPMI-8226 leukemia) [µM] | TGI (HOP-92 NSCLC) [µM] | TGI (NCI-H460 lung) [µM] |
| --- | --- | --- | --- | --- | --- | --- | --- | --- | --- | --- | --- | --- | --- | --- | --- | --- | --- | --- | --- |
| N#Cc1c(C#N)c(-c2ccccc2)n(Cc2ccccc2)c1N | 86.4 | > 100 | > 100 | > 100 | > 100 | 64.7 | > 100 | 63.4 | > 100 | > 100 | > 100 | > 100 | > 100 | > 100 | > 100 | > 100 | > 100 |  |  |
| NC(=O)CN1CC(C2=C(O)CN(CC(N)=O)C2=O)=CC1=O | > 100 | > 100 | > 100 | > 100 | > 100 | > 100 | > 100 | > 100 | > 100 | > 100 | > 100 | > 100 | > 100 | > 100 | > 100 | > 100 | > 100 | > 100 | > 100 |
| Cc1ccc(S(=O)(=O)N2CCCSCCSCCCN(S(=O)(=O)c3ccc(C)cc3)CC2)cc1 | > 100 | > 100 | > 100 | > 100 | > 100 | > 100 | > 100 | > 100 | > 100 | > 100 | > 100 | > 100 | > 100 | > 100 | > 100 | > 100 | > 100 |  | > 100 |
| COc1ccc(C[C@@H](C(=O)NCCNC(=O)C(CC(C)C)N(C)C(=O)[C@@H]2CCCN2C(=O)[C@H](C)O)N(C)C(=O)[C@@H]2CCCN2C(=O)[C@H](CC(C)C)NC(=O)C(C)NC(=O)OCc2ccccc2)cc1 (stereo partly specified) (Cbz-[ξA]LP[NMeY](Me)-{Ethylenediamine-ξNMeL-Pro-Lac}) | > 100 | > 100 | > 100 | > 100 | > 100 | > 100 | > 100 | > 100 | > 100 | > 100 | > 100 | > 100 | > 100 | > 100 | > 100 | > 100 | > 100 | > 100 | > 100 |
| CC(=O)N1c2ccccc2C2=NN(C)C(=N)SC21 (stereo unspecified) | > 100 | > 100 | > 100 | > 100 | > 100 | > 100 | > 100 | > 100 |  | > 100 | > 100 | > 100 | > 100 | > 100 | > 100 | > 100 | > 100 |  | > 100 |
| COC(=O)CCC1=NCC(C)(C)O1 | > 10 | > 10 | > 10 | > 10 | > 10 | > 10 | > 10 | > 10 | > 10 | > 10 | > 10 | > 10 | > 10 | > 10 | > 10 | > 10 | > 10 |  | > 10 |
| COC(=O)c1cc(OS(=O)(=O)C(F)(F)F)c(=O)n2c1CCCC2 | > 100 |  | > 100 | > 100 | > 100 | > 100 | > 100 | > 100 | > 100 | > 100 | > 100 | > 100 | > 100 | > 100 | > 100 | > 100 |  |  |  |
| CC(=O)NC1C(OC(C)C(=O)NC(C(=O)NC(CCC(=O)NCCCNC2c3ccccc3Nc3cccc([N+](=O)[O-])c32)C(N)=O)C(C)C)C(O)C(CO)OC1(C)OCc1ccccc1 (stereo unspecified) | 3.02 | 2.85 | 1.81 | 2.6 | 5.87 | 4.34 | 3.82 |  | 3.33 | 4.75 | 3.56 | 0.817 | 3.3 | 4.1 | 3.67 | 1.3 | 1.01 |  | 0.405 |
| COc1cccc2c1C1(O)C2CCCCCCCCCC12OCCCO2 (stereo unspecified) | > 100 | > 81 | > 100 | > 100 | > 100 | > 91.8 | > 100 | > 100 | > 100 | > 100 | > 73.2 | > 100 | > 100 | > 100 | > 100 | > 100 | > 80.1 |  | > 59.5 |
| CCOC(=O)Nc1sc2c(c1C#N)CC(C)CC2 (stereo unspecified) | 46.7 | > 100 | > 100 | > 100 | > 100 | 38.2 | 99 |  | > 100 | 65.9 | 7.87 | > 100 | 96.6 | > 100 | 27 | 25 | 34.8 | > 100 | 17.3 |
| O=[N+]([O-])C1=Cc2cc(Cl)ccc2OC1c1cccc2ccccc12 (stereo unspecified) | 6.23 | 2.95 | 0.459 | 0.817 | 2.55 | 1.95 | 2.54 |  | 4.86 | 7.71 | 3.13 | 4.7 | 3.29 | 1.01 | 3.04 | 0.355 |  | 3 | 5.28 |
| O=C1c2c(ccc3c2CCC3)CC1Cc1ccc2c(c1)CCC2 (stereo unspecified) | 49 | > 100 | > 100 | 51.6 | 94.2 | 56 | > 100 | > 100 | > 100 | 61.6 | 73.8 | > 100 | > 100 | > 100 | > 100 | 47.2 | 53.1 |  | > 100 |
